Assay results taken from publication PMC10319141, “Imidazoquinolines with improved pharmacokinetic properties induce a high IFNα to TNFα ratio in vitro and in vivo” (Frontiers in Immunology, 2023).

Tests used:
[1] = biological target: T1, human TLR8 (Homo sapiens, UniProt Q9NR97); experiment: HEK-Blue hTLR8 SEAP reporter assay; type: cell-based; conditions: for TLR8 activity rel. to assay max: average maximal SEAP secretion relative to maximum secretion observed in the assay; for SEAP secretion from HEK-Blue hTLR-8: in words
T1 construct: host or cells: HEK blue hTLR8 reporter cells
T1 sequence (Q9NR97 27-1041): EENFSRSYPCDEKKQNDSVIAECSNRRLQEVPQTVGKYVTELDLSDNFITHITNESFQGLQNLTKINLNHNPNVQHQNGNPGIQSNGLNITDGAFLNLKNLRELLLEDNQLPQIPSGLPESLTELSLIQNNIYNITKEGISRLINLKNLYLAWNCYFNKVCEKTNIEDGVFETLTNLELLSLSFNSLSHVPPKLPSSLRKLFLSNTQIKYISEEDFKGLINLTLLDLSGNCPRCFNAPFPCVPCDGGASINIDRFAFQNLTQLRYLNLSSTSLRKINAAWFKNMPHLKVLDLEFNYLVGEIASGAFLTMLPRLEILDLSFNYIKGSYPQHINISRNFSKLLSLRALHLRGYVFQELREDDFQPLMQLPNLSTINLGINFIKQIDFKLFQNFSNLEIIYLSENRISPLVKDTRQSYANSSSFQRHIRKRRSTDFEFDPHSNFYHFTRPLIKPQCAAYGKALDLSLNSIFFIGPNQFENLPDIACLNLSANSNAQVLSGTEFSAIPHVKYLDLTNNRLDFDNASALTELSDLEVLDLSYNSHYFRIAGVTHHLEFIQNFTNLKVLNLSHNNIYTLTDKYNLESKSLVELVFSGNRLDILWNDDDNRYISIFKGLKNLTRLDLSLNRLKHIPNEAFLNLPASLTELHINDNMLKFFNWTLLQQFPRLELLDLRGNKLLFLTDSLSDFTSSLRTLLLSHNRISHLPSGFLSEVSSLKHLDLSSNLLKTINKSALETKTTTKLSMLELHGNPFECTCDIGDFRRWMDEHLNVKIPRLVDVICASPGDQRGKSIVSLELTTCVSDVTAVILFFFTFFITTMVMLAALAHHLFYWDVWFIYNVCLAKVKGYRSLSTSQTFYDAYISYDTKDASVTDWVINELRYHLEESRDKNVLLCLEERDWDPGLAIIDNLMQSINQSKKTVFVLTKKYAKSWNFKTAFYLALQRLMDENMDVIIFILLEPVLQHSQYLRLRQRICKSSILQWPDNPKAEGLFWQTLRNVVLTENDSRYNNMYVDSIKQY
Procedure: HEK blue hTLR7 or hTLR8 reporter cells (Invivogen) were cultivated in DMEM High Glucose (Biowest) according to the manufacturer’s instructions. Cells were treated with test compounds and controls at various concentrations in serum-free DMEM and incubated at 37°C, 5% CO2 for 24 h before supernatants were collected.
Relative secreted embryonic alkaline phosphatase (SEAP) activity in the supernatants was determined by quantification of para-Nitrophenyl Phosphate (pNPP)-turnover. Supernatants were diluted 10-fold in a solution containing 1 mM MgCl2, 1 M diethanolamine and 1 mg/mL pNPP and incubated at RT for 15 min before the reaction was stopped by the addition of 0.25 volumes of 1 M NaOH. Absorbance was measured at 405 nm on a Versamax microplate reader (Molecular Devices) and normalized to the mean of >5 solvent controls.
To obtain reliable estimates, replicate measurements of a minimum of 2 experiments were normalized to the maximal SEAP activity of a compound in a given experiment and pooled before fitting a non-linear function to the data.

[2] = tested on: TNFα and IFNα in peripheral plasma; experiment: Cytokine AUC in peripheral plasma after activity-adjusted s.c. doses (Figure 5C, Table 2 bottom); type: in vivo, C57BL/6 mice; conditions: for IFNα AUC / TNFα AUC: 8 h period; for IFNα AUC / TNFα AUC / INFα AUC / TNFα AUC: doses adjusted to activity (bottom section); for dose ratio, times the molar dose of RSQ leading to comparable amounts of IFNα / dose ratio, times the molar dose of RSQ necessary to induce similar levels of TNFα: comparison of AUC, s.c.
Procedure: Cytokine concentrations in samples were quantified either by ELISA (hTNFα, R&D Systems; hIFNα, Mabtech) or cytometric bead arrays (CBA, LegendPlex mouse anti-virus response panel, BioLegend) according to the manufacturer’s instructions. CBAs were acquired on a ZE5 Cell Analyzer (Bio-Rad) and analyzed using the LegendPlex Software Suite (Qognit/BioLegend). Absorbance of ELISA-samples was quantified using a Versamax microplate reader (Molecular Devices).
Formulation. Test compounds were prepared for application in either 1% Tween 80, 9% PEG400 in ultrapure water (Biowest) (i.v., i.p., p.o. application) or 5 mM citric acid in 0.9% saline (Braun) (subcutaneous application). If compounds were administered subcutaneously, injections were carried out into the neck crease.
Collection of Samples. Mice were bled from the tail vein at various timepoints. Heparin (Sigma) or K2-EDTA (Sigma) was added to blood samples to a final […] concentration of 10-15 Unit or 5 mM. Plasma was generated by centrifugation at 6800xg for 8 min at 4°C and stored at -80°C until analyzed by ELISA or CBA. Animals were sacrificed after the indicated time points by CO2 inhalation. Heart blood and organs for compound quantification by HPLC-MS/MS were collected post mortem and stored at –20°C until extracted as described above.
Compound concentration in (A) peripheral blood collected via tail bleeding before, 15, 30 60, 120, 240, 360 and 480 min after s.c. compound application and (B) organs collected after 8 h was assessed via HPLC-MS/MS. (A, B) Data are presented as mean ± SD. (C) Levels of TNFα and IFNα as well as (D) IL6, CXCL1, CCL2, IFNβ, IFNγ and IL10 in tail plasma over time were determined via cytometric bead array. Area under the curve (AUC) of each cytokine was plotted against compound concentration. Data are represented as mean ± 95% confidence interval.

TLR8 activity rel. to assay max [1]	SEAP secretion from HEK-Blue hTLR-8 [1]	SMILES	IFNα AUC ([2]; 1 µmol/kg s.c.) [pg·min/mL]	TNFα AUC ([2]; 1 µmol/kg s.c.) [pg·min/mL]	INFα AUC / TNFα AUC ([2]; 1 µmol/kg s.c.)	IFNα AUC ([2]; 3 µmol/kg s.c.) [pg·min/mL]	TNFα AUC ([2]; 3 µmol/kg s.c.) [pg·min/mL]	INFα AUC / TNFα AUC ([2]; 3 µmol/kg s.c.)	IFNα AUC ([2]; 6 µmol/kg s.c.) [pg·min/mL]	TNFα AUC ([2]; 6 µmol/kg s.c.) [pg·min/mL]	INFα AUC / TNFα AUC ([2]; 6 µmol/kg s.c.)	IFNα AUC ([2]; 12 µmol/kg s.c.) [pg·min/mL]	TNFα AUC ([2]; 12 µmol/kg s.c.) [pg·min/mL]	INFα AUC / TNFα AUC ([2]; 12 µmol/kg s.c.)	dose ratio, times the molar dose of RSQ leading to comparable amounts of IFNα [2]	dose ratio, times the molar dose of RSQ necessary to induce similar levels of TNFα [2]	IFNα AUC ([2]; 0.1 µmol/kg s.c.) [pg·min/mL]	TNFα AUC ([2]; 0.1 µmol/kg s.c.) [pg·min/mL]	IFNα AUC ([2]; 0.3 µmol/kg s.c.) [pg·min/mL]	TNFα AUC ([2]; 0.3 µmol/kg s.c.) [pg·min/mL]
11% ± 8%	close to baseline	CCCCc1nc2c(N)nc3ccccc3c2n1CCC1CCNCC1 [A1]	70000	9700	7	490000	11000	44	1.1e+06	20000	58	1.9e+06	44000	44	6-10 times	30-40 times	–	–	–	–
4% ± 1%	close to baseline	CCCCc1nc2c(N)nc3ccccc3c2n1CC1CCN(C(=O)CN(C)CC(=O)N(C)[C@H]2C[C@@H](C)O[C@@H](O[C@@H]3[C@@H](C)[C@H](O[C@H]4C[C@@](C)(OC)[C@@H](O)[C@H](C)O4)[C@@H](C)C(=O)O[C@H](CC)[C@@](C)(O)[C@H](O)[C@@H](C)N(C)C[C@H](C)C[C@@]3(C)O)[C@@H]2O)CC1 [A2-mac]	–	–	–	–	–	–	–	–	–	–	–	–	–	–	–	–	–	–
96% ± 4%	–	CCOCc1nc2c(N)nc3ccccc3c2n1CC(C)(C)O [RSQ, Resiquimod, reference compound]	1.1e+06	120000	–	970000	150000	–	–	–	–	–	–	–	–	–	110000	17000	560000	50000
5% ± 3%	close to baseline	CCCCc1nc2c(N)nc3ccccc3c2n1CCC1CCN(C(=O)CN(C)CC(=O)N(C)C2CC(C)OC(OC3C(C)C(OC4CC(C)(OC)C(O)C(C)O4)C(C)C(=O)OC(CC)C(C)(O)C(O)C(C)N(C)CC(C)CC3(C)O)C2O)CC1 (stereo not shown) [A1-mac]	33000	7200	5	300000	14000	22	1.6e+06	38000	42	1.9e+06	65000	30	6-10 times	30-40 times	–	–	–	–
